In patent US20240110183A1, “ANTIFIBROTIC AND ANTITUMOR ACTIVITY OF CD63 BLOCKADE” (The Board of Trustees of the Leland Stanford Junior …, priority 2020, published 2024):

Test system: HK2, NRK52E, NRK49F cell lines
Assay: RT-qPCR analysis of kidney cell lines treated with TGFβ1
Type: cell-based, human, rat
Details: TGFβ1 10 ng/ml, FIG. 21
Description: FIG. 21A-FIG. 21C. Activation of TGFβ1 signaling pathway elevated the expression of fibrotic related proteins in 3 kidney cell lines. (FIG. 21 FIG. 21A) Human epithelial (HK2), (FIG. 21 B) rat epithelial (NRK52E), (FIG. 21C) rat fibroblast (NRK49F) cell lines were treated with TGFβ1 (10 ng/ml) or TGFβ1 (10 ng/ml) plus LY2109761 (2.5 μM) for indicated times in hours.
Activation of TGFβ1 signaling pathway elevated the expression of fibrotic related proteins in 3 kidney cell lines. Human epithelial (HK2), rat epithelial (NRK52E), rat fibroblast (NRK49F) cell lines were treated with TGFβ1 (10 ng/ml) or TGFβ1 (10 ng/ml) plus LY2109761 (2.5 μM) for times indicated in hours as shown in FIG. 21 A-C.

**Q.** Which “expression of CD63 and its known interactor TIMP1” value (HK2, NRK52E, NRK49F) does the source give for “TGFβ1: TGFβ1 (10 ng/ml) used to activate the TGFβ1 signaling pathway in kidney cell lines” here?
**A.** not increased

**Q.** What about the “expression of fibrotic related proteins” value (human epithelial (HK2), rat epithelial (NRK52E), rat fibroblast (NRK49F)) of the same substance?
**A.** elevated
